The numbers were not newly measured in patent publication US20250248986A1, “ANTIFUNGAL DRUG INHALATION FORMULATIONS” (priority 2024, published 2025), which cites them from elsewhere.

Like-named read-outs stand apart in the source and are kept apart here.

As for `CC[C@@H]([C@H](C)O)n1ncn(-c2ccc(N3CCN(c4ccc(OC[C@@H]5CO[C@@](Cn6cncn6)(c6ccc(F)cc6F)C5)cc4)CC3)cc2)c1=O` [Posaconazole], where the note is “pH of about 6.4 or higher”, the “solubility of the free base” value is listed as “less than 1 μg/ml”. With `CCC(C)n1ncn(-c2ccc(N3CCN(c4ccc(OCC5COC(Cn6cncn6)(c6ccc(Cl)cc6Cl)O5)cc4)CC3)cc2)c1=O` (racemic) [Itraconazole], the water solubility result (neutral conditions) was “about 1 ng/ml” and the water solubility entry (pH 1) is reported as “about 1 μg/ml”.
